Assay results published in patent US10807958B2, “1,4-bis(3-aminopropyl)piperazine derivative and its use” (INSERM (Institut National de la Sante et de la Recherche …, priority 2015, dated 2020).

Test system: endogenous Tau (MAPT) of wild-type C57/BL6 animals
Assay: 2D gel electrophoresis of endogenous brain Tau in treated wild-type animals
Format: in vivo, mouse
Conditions: wild-type mice, 1 month; for number of Tau isovariants stained with antibody S199: 5 isovariants in non-treated condition
From the text: Wild-type C57BL/6J animals of 3 months were purchased at Charles Rivers Laboratories (France) and were allow to acclimate in the animal facility for at least one week before any treatment. Thy-Tau22 transgenic colonies (C57BL/6J genetic background) were obtained by crossing heterozygous Thy-Tau22 males with C57BL/6 WT females. […] In this model, a progressive development of NFT is observed in the hippocampus and amygdala, which parallels behavioral impairments (Schindowski et al., 2006). Furthermorever, in the hippocampus, hyper- and abnormally phosphorylated Tau species accumulate within the somato-dendritic area (Schindowski et al., 2006).
For animal treatment, animals were randomly distributed and the compound of Formula I was given in the drinking water at final concentration of 0.5 or 1 mg/kg. Drinking bottles were changed once per week, volume consumption was measured along the treatment period. Food consumption and body weight were assessed. In wild-type animals the pilot study of drug treatment was performed for one month to establish the innocuousness of the treatment with the compound of Formula I. This was based on the physiological, social and behavioural assessments. Thy-Tau22 males were treated for 4 months starting at 3 month old. All protocols were approved by the local ethics committee (n^∘342012, CEEA).
After behavioral assessment, blood was collected in 1.5 mL polypropylene tubes (Eppendorf, France), mice were sacrificed by cervical dislocation to avoid any modifications instrumental to anesthesia (Lefreche et al. 2012). Hippocampi and cortices were dissected and snap frozen in 1.5 mL tubes (Eppendorf). Tissue was homogenized in Tris-HCl buffer (10 mM pH 7.4) containing 320 mM sucrose, protease inhibitors (Complete mini EDTA-free, Roche) sonicated and spun at 12,000×g for 10 min at 4° C. The supernatant was recovered, protein concentration was achieved using the BCA Protein quantification assay kit (Pierce) according to the manufacturer instruction. The supernatant was further processed for biochemical analyses or kept at −80° C. For 1D or 2D gels, the same lysis buffer was used. Thus, equal amount protein in Tris buffer were added with a solution containing 7M urea, 2M thiourée with 2% SDS and sonicated at 60 Hz 30 pulses.
Two-dimensional gel electrophoresis was performed according to the recently published procedure (Fernandez-Gomez et al., 2014). Briefly, cells were rinsed once with PBS and lysed in UTS buffer (7M urea, 2M thiourea, 2% SDS) and sonicated at 60 Hz 30 pulses. Lysate was precipitated with methanol/chloroform. 50 μg of proteins were precipitate using the chloroform/methanol procedure and the pellet was dissolved in 2D buffer [urea 7M, thiourea 2M, 4% CHAPS, and 0.6% Pharmalytes 3-10 (G&E Healthcare)]. […] The strips were layered onto a 4-12% Bis-Tris Poly-acrylamide Gel XT™ Precast Criterion (BioRad) and run with a constant tension of 100V as described for 1D SDS-PAGE. The Western blot was performed as above described for 1D SDS-PAGE and Western-blotting.
To further determine the effect of the compound of Formula I on Tau metabolism, wild-type C57/BL6 animals were treated with 0.5 and 1 mg/Kg of the compound of Formula I for 1 month and endogenous MAPT expression was assessed by 2D gel electrophoresis. Tau protein isovariants consist of three series ranging from pI 10 to 6. The major and most basic isovariants correspond to the mouse Tau isoform comprising the sole exon 10 encoding sequence. The two other series of isoforms of molecular weight of 64 and 69 kDa are isovariants of Tau isoforms which, in addition to the exon 10, contain exon 2 or exon 2+3 encoding sequences, respectively.

Compound: CC(C)CN(CCCN1CCN(CCCNc2c3c(nc4ccccc24)CCCC3)CC1)CC(C)C [compound of Formula I, N-[3-(4-{3-[Bis(2-methylpropyl)amino]propyl}piperazin-1-yl)propyl]-1,2,3,4-tetrahydroacridin-9-amine]
- number of Tau isovariants stained with antibody S199 (0.5 mg/Kg): 3 isovariants
- low molecular weight Tau catabolic products (Tau-Cter antibody) (0.5 mg/Kg, brain 2D gel, FIG. 3): increased in number and intensity
- number of Tau isovariants stained with antibody S199 (1 mg/Kg): 2 isovariants
- distribution of Tau isovariants (Tau-Cter antibody) (0.5 and 1 mg/Kg in drinking water, brain 2D gel, FIG. 3): did not significantly change
- surface of the spots stained with antibody S199 (0.5 and 1 mg/Kg, 2D gel): reduced
- overall 2D profile of the full-length Tau isoforms (after treatment 0.5 and 1 mg/Kg): preserved
